Compound `CS(=O)(=O)CCNc1ncc2cc(Oc3ccc(F)cc3F)ccc2n1` [Example 5] has a melting point of 160.1 to 161.5 °C.
`CS(=O)(=O)N1CCC(Nc2ncc3cc(Oc4ccc(F)cc4F)ccc3n2)CC1` [Example 6] gave a melting point of 173.9 to 177.1 °C.
Work on `OCCC(CCO)Nc1ncc2cc(Oc3ccc(F)cc3F)ccc2n1` [Example 3, 3-[6-(2,4-Difluorophenoxy)-quinazolin-2-ylamino]-pentane-1,5-diol] yielded a melting point of 112.9 to 113.6 °C.
Work on `CCC(CO)(CO)Nc1ncc2cc(Oc3ccc(F)cc3F)ccc2n1` [Example 1, 2-[6-(2,4-Difluoro-phenoxy)-quinazolin-2-ylamino]-2-ethyl-propane-1,3-diol] yielded a melting point of 110 to 112.9 °C.
`OC1CCC(Nc2ncc3cc(Oc4ccc(F)cc4F)ccc3n2)CC1` (centres unmarked) [Example 8, 4-[6-(2,4-Difluoro-phenoxy)-quinazolin-2-ylamino]-cyclohexanol] gave a melting point of 176.2 to 176.8 °C.
`CC(C)Nc1ncc2cc(Oc3ccc(F)cc3F)ccc2n1` [Example 2] showed a melting point of 160 to 162.6 °C.
`OCC(O)CNc1ncc2cc(Oc3ccc(F)cc3F)ccc2n1` (centres unmarked) [Example 4, 3-[6-(2,4-Difluoro-phenoxy)-quinazolin-2-ylamino]-propane-1,2-diol] showed a melting point of 161.5 to 162.7 °C.
Work on `CCOc1ccc2nc(NCC[S+](C)[O-])ncc2c1` (centres unmarked) [Example 11, (6-Ethoxy-quinazolin-2-yl)-(2-methanesulfinyl-ethyl)-amine] yielded a melting point of 152.7 to 154.6 °C.

From patent publication US7456185B2, “Substituted quinazoline compounds useful as p38 kinase inhibitors” (Roche Palo Alto LLC, priority 2003, dated 2008)
